Reference: patent US20110136801A1, “Novel Compounds” (Dainippon Sumitomo Pharma Co. Ltd., priority 2009, published 2011)
Each block holds one molecule with its values, some of them ahead of it.

Legend:
[1] = system: Male Brown Norway rats; experiment: Antigen-induced pulmonary inflammation in a rat asthma model (eosinophils and Th2 cytokines in BALF); assay type: in vivo; details: BALF 48 hours after challenge
Method: Rats were sensitized and challenged to produce allergic airway inflammation in a similar manner to that described by Underwood et al (British Journal of Pharmacology 2002; 137: 263-275, 2002). Male Brown Norway rats were sensitized subcutaneously with ovalbumin (OVA) and aluminum hydroxide on day 0, and challenged with aerosolized OVA solution on day 14. The test compound was administered twice intratracheally 24 hours before and 24 hours after the OVA-challenge and bronchoalveolar lavage fluid (BALF) was collected 48 hours after the OVA-challenge. Then eosinophils and Th2 cytokines (IL-5 and IL-13) in the BALF were measured to evaluate efficacy of the test compounds of this invention.

[2] = biological target: T1, human TLR7 (Homo sapiens, UniProt Q9NYK1); experiment: Human TLR7 Assay (SEAP reporter in HEK293 cells); assay type: cell-based; details: HEK293 cell line expressing human TLR7 and pNiFty2-SEAP reporter, overnight incubation at 37° C., 0.1% DMSO; read-out: hTLR7 EC50;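 further: Read-out is secreted alkaline phosphatase made under an NFkB/ELAM-1 composite promoter, reporting TLR7-triggered NFkB activation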
T1 construct: expressed in transfected cells; host or cells: HEK293 cell line stably expressing the pNiFty2-SEAP reporter plasmid; TLR7 in pUNO vector, blasticidin selection
T1 sequence (Q9NYK1 27-1049): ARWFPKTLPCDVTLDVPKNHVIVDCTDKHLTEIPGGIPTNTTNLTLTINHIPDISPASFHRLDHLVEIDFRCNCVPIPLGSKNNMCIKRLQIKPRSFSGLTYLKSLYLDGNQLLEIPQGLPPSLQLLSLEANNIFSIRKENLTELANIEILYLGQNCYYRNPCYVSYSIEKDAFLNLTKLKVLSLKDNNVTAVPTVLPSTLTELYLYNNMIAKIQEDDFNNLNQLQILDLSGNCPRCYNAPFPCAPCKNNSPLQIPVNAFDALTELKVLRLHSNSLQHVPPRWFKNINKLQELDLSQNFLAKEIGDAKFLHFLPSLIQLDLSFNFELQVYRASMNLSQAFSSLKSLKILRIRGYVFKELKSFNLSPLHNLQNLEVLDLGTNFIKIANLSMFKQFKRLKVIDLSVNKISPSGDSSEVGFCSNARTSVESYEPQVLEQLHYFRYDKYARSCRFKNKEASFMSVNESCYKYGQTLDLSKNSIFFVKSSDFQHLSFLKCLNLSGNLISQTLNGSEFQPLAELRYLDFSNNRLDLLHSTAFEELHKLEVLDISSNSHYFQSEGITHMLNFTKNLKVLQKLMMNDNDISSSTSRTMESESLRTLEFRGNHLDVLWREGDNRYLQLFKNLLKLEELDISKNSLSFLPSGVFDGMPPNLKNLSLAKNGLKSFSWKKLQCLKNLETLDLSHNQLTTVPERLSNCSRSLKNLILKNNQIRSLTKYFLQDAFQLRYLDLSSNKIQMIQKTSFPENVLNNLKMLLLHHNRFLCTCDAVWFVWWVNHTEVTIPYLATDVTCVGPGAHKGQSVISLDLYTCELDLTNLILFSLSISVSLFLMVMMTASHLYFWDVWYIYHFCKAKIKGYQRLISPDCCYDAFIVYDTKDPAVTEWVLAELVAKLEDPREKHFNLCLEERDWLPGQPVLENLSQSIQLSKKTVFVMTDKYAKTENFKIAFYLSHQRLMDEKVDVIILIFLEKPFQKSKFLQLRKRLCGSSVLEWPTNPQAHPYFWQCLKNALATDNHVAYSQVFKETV
Description: The most common variant sequence of human TLR7 (represented by the EMBL sequence AF240467) was cloned into the mammalian cell expression vector pUNO and transfected into a HEK293 cell line already stably expressing the pNiFty2-SEAP reporter plasmid; integration of the reporter gene was maintained by selection with the antibiotic zeocin. Transfectants with stable TLR7 expression were selected using the antibiotic blasticidin. In this reporter cell-line, expression of secreted alkaline phosphatase (SEAP) is controlled by an NFkB/ELAM-1 composite promoter comprising five NFkB sites combined with the proximal ELAM-1 promoter. TLR signaling leads to the translocation of NFkB and activation of the promoter results in expression of the SEAP gene. TLR7-specific activation was assessed by determining the level of SEAP produced following overnight incubation of the cells at 37° C. with the standard compound in the presence of 0.1% (v/v) dimethylsulfoxide (DMSO). Concentration dependent induction of SEAP production by compounds was expressed as the concentration of compound which produced half of the maximal level of SEAP induction for that compound (EC50).

[3] = 0.1 mg/kg intratracheally 24 hours before and 24 hours after OVA-challenge
[4] = 1.0 mg/kg intratracheally 24 hours before and 24 hours after OVA-challenge
[5] = 0.01 mg/kg intratracheally 24 hours before and 24 hours after OVA-challenge
[6] = 0.03 mg/kg intratracheally 24 hours before and 24 hours after OVA-challenge
[7] = 0.3 mg/kg intratracheally 24 hours before and 24 hours after OVA-challenge

Structure (SMILES): CCCCc1nc2c(N)nc3ccccc3c2n1CCCN(Cc1cccc(OCC(=O)OC)c1)C(=O)CN(C)C [Example 9, Methyl (3-{[[3-(4-amino-2-butyl-1H-imidazo[4,5-c]quinolin-1-yl)propyl](N,N-dimethylglycyl)amino]methyl}phenoxy)acetate]
Eosinophiles in BALF, inhibition (%) to OVA-Challenge control [1, 3]: 53%
IL-5 in BALF, inhibition (%) to OVA-Challenge control [1, 3]: 66%
IL-13 in BALF, inhibition (%) to OVA-Challenge control [1, 3]: 89%
Eosinophiles in BALF, inhibition (%) to OVA-Challenge control [1, 4]: 77%
IL-5 in BALF, inhibition (%) to OVA-Challenge control [1, 4]: 72%
IL-13 in BALF, inhibition (%) to OVA-Challenge control [1, 4]: 85%

EC50 [2]: 31.7 nM
Structure (SMILES): CCN(CC)CC(=O)N(CCCn1c(CCOC)nc2c(N)nc3ccccc3c21)Cc1cccc(OCC(=O)OC)c1 [Example 20, Methyl (3-{[[3-(4-amino-2-(2-methoxyethyl)-1H-imidazo[4,5-c]quinolin-1-yl)propyl](N,N-diethylglycyl)amino]methyl}phenoxy)acetate]
Eosinophiles in BALF, inhibition (%) to OVA-Challenge control [1, 5]: 14%
IL-5 in BALF, inhibition (%) to OVA-Challenge control [1, 5]: No effect
IL-13 in BALF, inhibition (%) to OVA-Challenge control [1, 5]: No effect
Eosinophiles in BALF, inhibition (%) to OVA-Challenge control [1, 3]: 56%
IL-5 in BALF, inhibition (%) to OVA-Challenge control [1, 3]: No effect
IL-13 in BALF, inhibition (%) to OVA-Challenge control [1, 3]: 22%

EC50 [2]: 66.1 nM
Structure (SMILES): CCN(CC)CC(=O)N(CCCn1c(CCOC)nc2c(N)nc3ccccc3c21)Cc1cccc(OCC(=O)OC(C)C)c1 [Example 27, Isopropyl 2-{3-[(N-{3-[4-amino-2-(2-methoxyethyl)-1H-imidazo[4,5-c]quinolin-1-yl]propyl}-2-(diethylamino)acetamido)methyl]phenoxy}acetate]
Eosinophiles in BALF, inhibition (%) to OVA-Challenge control [1, 3]: 64%
IL-5 in BALF, inhibition (%) to OVA-Challenge control [1, 3]: 41%
IL-13 in BALF, inhibition (%) to OVA-Challenge control [1, 3]: 72%
Eosinophiles in BALF, inhibition (%) to OVA-Challenge control [1, 4]: 89%
IL-5 in BALF, inhibition (%) to OVA-Challenge control [1, 4]: 90%
IL-13 in BALF, inhibition (%) to OVA-Challenge control [1, 4]: 88%

EC50 [2]: 33.1 nM
Structure (SMILES): CCN(CC)CC(=O)N(CCCn1c(CCOC)nc2c(N)nc3ccccc3c21)Cc1cccc(OC(C)(C)C(=O)OC)c1 [Example 56, Methyl 2-{3-[(N-{3-[4-amino-2-(2-methoxyethyl)-1H-imidazo[4,5-c]quinolin-1-yl]propyl}-2-{diethylamino}acetamido)methyl]phenoxy}-2-methylpropanoate]
Eosinophiles in BALF, inhibition (%) to OVA-Challenge control [1, 3]: 78%
IL-5 in BALF, inhibition (%) to OVA-Challenge control [1, 3]: 86%
IL-13 in BALF, inhibition (%) to OVA-Challenge control [1, 3]: 89%
Eosinophiles in BALF, inhibition (%) to OVA-Challenge control [1, 4]: 94%
IL-5 in BALF, inhibition (%) to OVA-Challenge control [1, 4]: 99%
IL-13 in BALF, inhibition (%) to OVA-Challenge control [1, 4]: 98%

EC50 [2]: 56.6 nM
Structure (SMILES): CCN(CC)CC(=O)N(CCCn1c(CCOC)nc2c(N)nc3ccccc3c21)Cc1cccc(OCC(=O)OC2CCCC2)c1 [Example 80, Cyclopentyl 2-{3-[(N-{3-[4-amino-2-(2-methoxyethyl)-1H-imidazo[4,5-c]quinolin-1-yl]propyl}-2-{diethylamino}acetamido)methyl]phenoxy}acetate]
Eosinophiles in BALF, inhibition (%) to OVA-Challenge control [1, 3]: 15%
IL-5 in BALF, inhibition (%) to OVA-Challenge control [1, 3]: No effect
IL-13 in BALF, inhibition (%) to OVA-Challenge control [1, 3]: No effect
Eosinophiles in BALF, inhibition (%) to OVA-Challenge control [1, 4]: 89%
IL-5 in BALF, inhibition (%) to OVA-Challenge control [1, 4]: 91%
IL-13 in BALF, inhibition (%) to OVA-Challenge control [1, 4]: 83%

EC50 [2]: 27.9 nM
Structure (SMILES): CCN(CC)CC(=O)N(CCCn1c(CCOC)nc2c(N)nc3ccccc3c21)Cc1cccc(OCC(=O)OC(C)C)c1F [Example 94, Isopropyl 2-{3-[(N-{3-[4-amino-2-(2-methoxyethyl)-1H-imidazo[4,5-c]quinolin-1-yl]propyl}-2-{diethylamino}acetamido)methy]-2-fluorophenoxy}acetate]
Eosinophiles in BALF, inhibition (%) to OVA-Challenge control [1, 3]: 68%
IL-5 in BALF, inhibition (%) to OVA-Challenge control [1, 3]: 34%
IL-13 in BALF, inhibition (%) to OVA-Challenge control [1, 3]: 50%
Eosinophiles in BALF, inhibition (%) to OVA-Challenge control [1, 4]: 91%
IL-5 in BALF, inhibition (%) to OVA-Challenge control [1, 4]: 90%
IL-13 in BALF, inhibition (%) to OVA-Challenge control [1, 4]: 82%

EC50 [2]: 262 nM
Structure (SMILES): CCOCc1nc2c(N)nc3ccccc3c2n1CCCN(Cc1cccc(OCC(=O)OC(C)C)c1)C(=O)CN(CC)CC [Example 161, Isopropyl 2-{3-[(N-{3-[4-amino-2-(ethoxymethyl)-1H-imidazo[4,5-c]quinolin-1-yl]propyl}-2-{diethylamino}acetamido)methyl]phenoxy}acetate]
Eosinophiles in BALF, inhibition (%) to OVA-Challenge control [1, 6]: 54%
IL-13 in BALF, inhibition (%) to OVA-Challenge control [1, 6]: No effect
Eosinophiles in BALF, inhibition (%) to OVA-Challenge control [1, 7]: 66%
IL-13 in BALF, inhibition (%) to OVA-Challenge control [1, 7]: 64%

EC50 [2]: 174 nM
Structure (SMILES): CCOCc1nc2c(N)nc3ccccc3c2n1CCCN(Cc1cccc(OC(C)(C)C(=O)OC)c1)C(=O)CN(CC)CC [Example 163, Methyl 2-{3-[(N-{3-[4-amino-2-(ethoxymethyl)-1H-imidazo[4,5-c]quinolin-1-yl]propyl}-2-{diethylamino}acetamido)methyl]phenoxy}-2-methylpropanoate]
Eosinophiles in BALF, inhibition (%) to OVA-Challenge control [1, 6]: 45%
IL-13 in BALF, inhibition (%) to OVA-Challenge control [1, 6]: 50%
Eosinophiles in BALF, inhibition (%) to OVA-Challenge control [1, 7]: 65%
IL-13 in BALF, inhibition (%) to OVA-Challenge control [1, 7]: 80%
